Earlier results, collected in US20110287097A1, “PHARMACEUTICAL COMPOSITIONS COMPRISING ROPINIROLE” (DR. REDDY'S LABORATORIES, INC., priority 2007, published 2011).

SMILES: CCCN(CCC)CCc1cccc2c1CC(=O)N2 [Ropinirole, 4-[2-(dipropylamino)ethyl]-1,3-dihydro-2H-indol-2-one]
- time to peak plasma concentration (after administration of an immediate release tablet): 1 to 2 h
- absolute systemic bioavailability (in vivo): 55%
- mean plasma elimination half-life (in vivo): approximately 6 hours
